pKi: −log10 of the molar value.
Molecular target: T1, hM2 receptor (Homo sapiens, UniProt P08172)
T1 construct: expressed in transfected cells
T1 sequence (P08172 1-466): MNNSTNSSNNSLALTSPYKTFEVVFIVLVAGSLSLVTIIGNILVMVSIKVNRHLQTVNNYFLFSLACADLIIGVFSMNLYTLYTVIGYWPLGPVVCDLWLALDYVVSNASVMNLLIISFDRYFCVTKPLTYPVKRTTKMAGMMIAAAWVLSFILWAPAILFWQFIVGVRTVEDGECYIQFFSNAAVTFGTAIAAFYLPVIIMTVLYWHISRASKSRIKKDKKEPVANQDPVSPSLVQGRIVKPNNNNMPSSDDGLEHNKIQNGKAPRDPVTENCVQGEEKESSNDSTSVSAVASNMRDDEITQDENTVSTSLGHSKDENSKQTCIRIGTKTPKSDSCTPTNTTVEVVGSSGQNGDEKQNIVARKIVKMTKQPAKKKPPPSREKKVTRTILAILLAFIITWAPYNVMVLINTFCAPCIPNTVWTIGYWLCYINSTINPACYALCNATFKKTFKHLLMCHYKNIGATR
Test: Blockade of agonist-mediated inhibition of cAMP accumulation
Assay type: cell-based
Settings: CHO-K1 cells expressing the hM2 receptor; read-out: Ki for blockade of oxotremorine-inhibition of forskolin-mediated cAMP accumulation
Experimental: A. Blockade of Agonist-Mediated Inhibition of cAMP Accumulation
In this assay, the functional potency of a test compound was determined by measuring the ability of the test compound to block oxotremorine-inhibition of forskolin-mediated cAMP accumulation in CHO-K^1 cells expressing the hM2 receptor.
cAMP assays were performed in a radioimmunoassay format using the Flashplate Adenylyl Cyclase Activation Assay System with ^125I-cAMP (NEN SMP004B, PerkinElmer Life Sciences Inc., Boston, Mass.), according to the manufacturer's instructions.
Cells were rinsed once with dPBS and lifted with […] (0.05% trypsin/[…]) as described in the Cell Culture and Membrane Preparation section above. […] The cell pellet was then re-suspended in 10 mL dPBS, and the cells were counted with a Coulter Z1 Dual Particle Counter (Beckman Coulter, Fullerton, Calif.). […]
Reactions were incubated for 10 minutes at 37° C. and stopped by addition of 100 μL ice-cold detection buffer. Plates were sealed, incubated overnight at room temperature and counted the next morning on a PerkinElmer TopCount liquid scintillation counter (PerkinElmer Inc., Wellesley, Mass.). The amount of cAMP produced (pmol/well) was calculated based on the counts observed for the samples and cAMP standards, as described in the manufacturer's user manual. […]

Question: CNCCCCCCCCN1CC[C@@H](C(C(N)=O)(c2ccccc2)c2ccccc2)C1 [Example 1, 2-[(S)-1-(8-Methylaminooctyl)pyrrolidin-3-yl]-2,2-diphenylacetamide] was tested. Which pKi did it give?
Answer: Its pKi is greater than 8.30.

From patent US7638639B2, “Substituted pyrrolidine and related compounds” (Theravance, Inc., priority 2003, dated 2009)
